Patent US20260200942A1, “PARP7 INHIBITORS AND THEIR APPLICATIONS” (CHONGQING PHARSCIN INNOBIO CO., LTD., priority 2023, published 2026)

Tests used:
PARP7 = target: T1, PARP7 (Homo sapiens, UniProt Q7Z3E1); test: PARP7 inhibitory activity assay (histone-coated 384-well plate, chemiluminescence); assay type: biochemical
T1 construct: purchased BPS 80527
T1 sequence (Q7Z3E1 1-657): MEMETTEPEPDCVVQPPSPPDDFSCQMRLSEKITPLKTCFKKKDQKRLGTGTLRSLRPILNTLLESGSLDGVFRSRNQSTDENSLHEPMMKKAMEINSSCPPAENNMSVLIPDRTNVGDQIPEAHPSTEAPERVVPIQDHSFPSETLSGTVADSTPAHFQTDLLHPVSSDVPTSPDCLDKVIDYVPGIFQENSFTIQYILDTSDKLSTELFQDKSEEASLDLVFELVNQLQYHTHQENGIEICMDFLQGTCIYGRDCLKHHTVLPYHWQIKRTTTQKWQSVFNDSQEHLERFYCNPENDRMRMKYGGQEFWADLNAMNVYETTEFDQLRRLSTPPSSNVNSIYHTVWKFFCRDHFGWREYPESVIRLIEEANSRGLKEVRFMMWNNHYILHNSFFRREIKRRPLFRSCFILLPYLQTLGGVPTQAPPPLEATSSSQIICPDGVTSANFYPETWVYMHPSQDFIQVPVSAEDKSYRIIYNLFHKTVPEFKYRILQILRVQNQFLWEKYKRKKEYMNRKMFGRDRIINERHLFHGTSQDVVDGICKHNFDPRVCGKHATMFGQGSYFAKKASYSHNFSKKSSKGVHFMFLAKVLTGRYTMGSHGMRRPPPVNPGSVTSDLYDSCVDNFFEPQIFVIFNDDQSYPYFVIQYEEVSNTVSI
From the text: Inhibition rate (%) calculation formula: […]

PARP2 = target: T2, PARP2 (Homo sapiens, UniProt Q9UGN5); test: PARP2 inhibitory activity assay (BPS PARP2 Chemiluminescent Activity Assay Kit); assay type: biochemical
T2 construct: purchased BPS Bioscience
T2 sequence (Q9UGN5 whole entry): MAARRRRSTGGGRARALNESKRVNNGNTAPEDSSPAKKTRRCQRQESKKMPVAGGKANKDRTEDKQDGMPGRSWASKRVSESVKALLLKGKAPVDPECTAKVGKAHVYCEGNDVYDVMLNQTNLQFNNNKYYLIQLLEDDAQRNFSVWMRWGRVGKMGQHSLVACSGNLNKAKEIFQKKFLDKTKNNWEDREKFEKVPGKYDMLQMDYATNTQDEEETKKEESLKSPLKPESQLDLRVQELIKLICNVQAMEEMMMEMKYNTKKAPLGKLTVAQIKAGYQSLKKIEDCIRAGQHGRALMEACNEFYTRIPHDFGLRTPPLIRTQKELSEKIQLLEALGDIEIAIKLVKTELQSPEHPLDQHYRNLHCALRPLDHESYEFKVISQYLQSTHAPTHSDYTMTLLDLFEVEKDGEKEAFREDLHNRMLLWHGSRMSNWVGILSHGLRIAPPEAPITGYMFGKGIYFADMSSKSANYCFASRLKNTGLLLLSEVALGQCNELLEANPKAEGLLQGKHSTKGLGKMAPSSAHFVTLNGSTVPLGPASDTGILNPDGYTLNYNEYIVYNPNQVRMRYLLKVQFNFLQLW
From the text: The PARP2 enzyme activity assay method used in the present disclosure employs reagents from the PARP2 Chemiluminescent Activity Assay Kit from BPS Bioscience, USA. […] The test results are shown in Table 1. /” indicates not tested.

[1] = Liver microsomal stability study, human; assay type: in vitro ADME; settings: Human liver microsomes
Procedure: (§1) The above compounds were diluted to a 1.5 μM intermediate working solution with 0.1 M potassium phosphate buffer containing 0.75 mg/mL liver microsomes, and then 30 μL of the intermediate working solution was dispensed into reaction plates for different time points (0, 5, 15, 30, 45, 60 min). 150 μL of methanol solution containing internal standard was added to the 0 min plate wells. For the other time points (5, 15, 30, 45, 60 min), the sample plates were pre-incubated at 37° C. for 5 min, after which the reaction was initiated with 15 μL of 6 mM NADPH solution and timing was started. 15 μL of 6 mM NADPH solution was added to the 0 min samples to balance the system. At 5 min, 15 min, 30 min, 45 min, and 60 min, respectively, 150 μL of methanol solution containing internal standard was added to the reaction wells to terminate the reaction. After the reaction was complete, the plates were shaken on a shaker at 600 rpm for 10 min, then centrifuged at 4000 rpm for 15 min. 80 μL of supernatant from each well was transferred to a 96-well sample plate containing 150 μL of ultrapure water, mixed, and then analyzed by LC/MS to calculate T1/2.

[2] = Liver microsomal stability study, rat; assay type: in vitro ADME; settings: Rat liver microsomes
Procedure: as §1

[3] = Liver microsomal stability study, mouse; assay type: in vitro ADME; settings: Mouse liver microsomes
Procedure: as §1

SMILES	IC50 (PARP7)	further results
O=c1[nH]cc(CN[C@H]2C[C@H](C(=O)N3CCN(c4ncc(C(F)(F)F)cn4)CC3)C2)cc1C(F)(F)F [Embodiment 13]	10 to 100 nM	half-life at 1 µM [1]: 0.5 to 1 h; half-life at 1 µM [2]: > 1 h; half-life at 1 µM [3]: > 1 h
C[C@@H]1CN(c2ncc(C(F)(F)F)cn2)CCN1C(=O)[C@H]1C[C@H](NCc2c[nH]c(=O)c(C(F)(F)F)c2)C1 [Embodiment 8]	10 to 100 nM	–
O=C(C1CN(Cc2cc(C(F)(F)F)c(=O)[nH]n2)C1)N1CCN2c3ncc(C(F)(F)F)cc3OCC[C@H]2C1 [Embodiment 40, (S)-4-(trifluoromethyl)-6-((3-(3-(trifluoromethyl)-7,7a,8,9,10,11-hexahydro-6H-pyrazino[1,2-d]pyrido[3,2-b][1,4]oxazepine-9-carbonyl)azetidin-1-yl)methyl)pyridazin-3(2H)-one]	10 to 100 nM	–
C[C@@H](CN1CC[C@@H](C(=O)N2C3CCC2CN(c2ncc(C(F)(F)F)cn2)C3)C1)Nc1cn[nH]c(=O)c1C(F)(F)F [Embodiment 2]	10 to 100 nM	–
O=C(C1CN(Cc2c[nH]c(=O)c(C(F)(F)F)c2)C1)N1CCN(c2ncc(C(F)(F)F)cn2)CC1 [Embodiment 14]	10 to 100 nM	half-life at 1 µM [1]: > 1 h; half-life at 1 µM [2]: > 1 h; half-life at 1 µM [3]: > 1 h
Cn1ccc2c(C(F)(F)F)cnc(N3CCN(C(=O)[C@H]4C[C@H](NC(C)(C)c5cc(C(F)(F)F)c(=O)[nH]n5)C4)CC3)c21 [Embodiment 65, 6-(2-(((1R,3R)-3-(4-(1-methyl-4-(trifluoromethyl)-1H-pyrrolo[2,3-c]pyridin-7-yl)piperazine-1-carbonyl)cyclobutyl)amino)propan-2-yl)-4-(trifluoromethyl)pyridazin-3(2H)-one]	–	IC50 (PARP2): 100 to 1000 nM
O=c1[nH]nc(CN[C@H]2C[C@H](C(=O)N3CCN4c5ncc(C(F)(F)F)cc5OCC[C@H]4C3)C2)cc1C(F)(F)F [Embodiment 41]	10 to 100 nM	–
O=c1cc(C(F)(F)F)c(CN[C@H]2C[C@H](C(=O)N3CCN(c4ncc(C(F)(F)F)cn4)CC3)C2)n[nH]1 [Embodiment 55]	1000 to 10000 nM	–
O=C([C@H]1CCN(Cc2c[nH]c(=O)c(C(F)(F)F)c2)C1)N1C2CCC1CN(c1ncc(C(F)(F)F)cn1)C2 [Embodiment 9, 3-(trifluoromethyl)-5-(((3S)-3-(3-(5-(trifluoromethyl)pyrimidin-2-yl)-3,8-diazabicyclo[3.2.1]octane-8-carbonyl)pyrrolidin-1-yl)methyl)pyridin-2(1H)-one]	1000 to 10000 nM	–
O=c1[nH]nc(CN[C@H]2C[C@H](C(=O)N3C4CCC3CN(c3ncc(C(F)(F)F)cn3)C4)C2)cc1C(F)(F)F [Embodiment 3]	10 to 100 nM	half-life at 1 µM [1]: > 1 h; half-life at 1 µM [2]: > 1 h; half-life at 1 µM [3]: > 1 h
O=c1[nH]cc(CN[C@H]2C[C@H](C(=O)N3C4CCC3CN(c3ncc(C(F)(F)F)cn3)C4)C2)cc1C(F)(F)F [Embodiment 4]	10 to 100 nM	half-life at 1 µM [1]: 0.5 to 1 h; half-life at 1 µM [2]: > 1 h; half-life at 1 µM [3]: > 1 h
O=C(C1CN(Cc2cc(C(F)(F)F)c(=O)[nH]n2)C1)N1CCN2c3ncc(C(F)(F)F)cc3COC[C@H]2C1 [Embodiment 42, (R)-4-(trifluoromethyl)-6-((3-(3-(trifluoromethyl)-7,7a,8,9,10,11-hexahydro-5H-pyrazino[2,1-c]pyrido[2,3-e][1,4]oxazepine-9-carbonyl)azetidin-1-yl)methyl)pyridazin-3(2H)-one]	10 to 100 nM	–
O=C(C1CN(Cc2c[nH]c(=O)c(C(F)(F)F)c2)C1)N1CCN(c2ccc(C(F)(F)F)cn2)CC1 [Embodiment 27]	10 to 100 nM	–

Continued, in another order:

IC50 (PARP7)	SMILES	further results
< 10 nM	NC(=O)c1cc(C(F)(F)F)cnc1N1CCN(C(=O)[C@H]2C[C@H](NCc3cc(C(F)(F)F)c(=O)[nH]n3)C2)CC1 [Embodiment 62, 2-(4-((1R,3R)-3-(((6-oxo-5-(trifluoromethyl)-1,6-dihydropyridazin-3-yl)methyl)amino)cyclobutane-1-carbonyl)piperazin-1-yl)-5-(trifluoromethyl)nicotinamide]	IC50 (PARP2): 10 to 100 nM
< 10 nM	CC(C)(N[C@H]1C[C@H](C(=O)N2CCN(c3ncc(C(F)(F)F)c4cc[nH]c34)CC2)C1)c1cc(C(F)(F)F)c(=O)[nH]n1 [Embodiment 64, 4-(trifluoromethyl)-6-(2-(((1R,3R)-3-(4-(4-(trifluoromethyl)-1H-pyrrolo[2,3-c]pyridin-7-yl)piperazine-1-carbonyl)cyclobutyl)amino)propan-2-yl)pyridazin-3(2H)-one]	IC50 (PARP2): 100 to 1000 nM
< 10 nM	CNC(=O)c1cc(C(F)(F)F)cnc1N1CCN(C(=O)[C@H]2C[C@H](NC(C)(C)c3cc(C(F)(F)F)c(=O)[nH]n3)C2)CC1 [Embodiment 67, N-methyl-2-(4-((1R,3R)-3-((2-(6-oxo-5-(trifluoromethyl)-1,6-dihydropyridazin-3-yl)propan-2-yl)amino)cyclobutane-1-carbonyl)piperazin-1-yl)-5-(trifluoromethyl)nicotinamide]	IC50 (PARP2): 100 to 1000 nM
< 10 nM	COc1cc(C(F)(F)F)cnc1N1CCN(C(=O)C2CN(Cc3cc(C(F)(F)F)c(=O)[nH]n3)C2)CC1 [Embodiment 46, 6-((3-(4-(3-methoxy-5-(trifluoromethyl)pyridin-2-yl)piperazine-1-carbonyl)azetidin-1-yl)methyl)-4-(trifluoromethyl)pyridazin-3(2H)-one]	IC50 (PARP2): 10 to 100 nM
< 10 nM	CC(C)(N[C@H]1C[C@H](C(=O)N2CCN(c3ncc(C(F)(F)F)cc3C(N)=O)CC2)C1)c1cc(C(F)(F)F)c(=O)[nH]n1 [Embodiment 60, 2-(4-((1R,3R)-3-((2-(6-oxo-5-(trifluoromethyl)-1,6-dihydropyridazin-3-yl)propan-2-yl)amino)cyclobutane-1-carbonyl)piperazin-1-yl)-5-(trifluoromethyl)nicotinamide]	IC50 (PARP2): 100 to 1000 nM
1000 to 10000 nM	O=C([C@H]1CC[C@H](NCc2c[nH]c(=O)c(C(F)(F)F)c2)C1)N1C2CCC1CN(c1ncc(C(F)(F)F)cn1)C2 [Embodiment 1]	–
10 to 100 nM	O=C([C@@H]1CCN(Cc2cc(C(F)(F)F)c(=O)[nH]n2)C1)N1CCN(c2ncc(C(F)(F)F)cn2)CC1 [Embodiment 31]	–
10 to 100 nM	COc1cc(C(F)(F)F)cnc1N1CCN(C(=O)[C@H]2C[C@H](NC(C)(C)c3cc(C(F)(F)F)c(=O)[nH]n3)C2)CC1 [Embodiment 59]	–
< 10 nM	CC(C)(N[C@H]1C[C@H](C(=O)N2CCN(c3ncc(C(F)(F)F)cn3)CC2)C1)c1cc(C(F)(F)F)c(=O)[nH]n1 [Embodiment 48]	IC50 (PARP2): 10 to 100 nM
10 to 100 nM	O=C([C@@H]1CCN(Cc2c[nH]c(=O)c(C(F)(F)F)c2)C1)N1CCN(c2ncc(C(F)(F)F)cn2)CC1 [Embodiment 24]	–
10 to 100 nM	O=C([C@@H]1CCN(Cc2c[nH]c(=O)c(C(F)(F)F)c2)C1)N1C2CCC1CN(c1ncc(C(F)(F)F)cn1)C2 [Embodiment 10, 3-(trifluoromethyl)-5-(((3R)-3-(3-(5-(trifluoromethyl)pyrimidin-2-yl)-3,8-diazabicyclo[3.2.1]octane-8-carbonyl)pyrrolidin-1-yl)methyl)pyridin-2(1H)-one]	–
10 to 100 nM	O=c1[nH]nc(CN[C@H]2C[C@H](C(=O)N3CCN4c5ncc(C(F)(F)F)cc5COC[C@H]4C3)C2)cc1C(F)(F)F [Embodiment 39]	–
10 to 100 nM	Cc1cc(C(F)(F)F)cnc1N1CCN(C(=O)[C@H]2C[C@H](NCc3cc(C(F)(F)F)c(=O)[nH]n3)C2)CC1 [Embodiment 53]	–
10 to 100 nM	C[C@H]1CN(C(=O)C2CN(Cc3c[nH]c(=O)c(C(F)(F)F)c3)C2)CCN1c1ncc(C(F)(F)F)cn1 [Embodiment 26]	–
< 10 nM	COc1cc(N2CCN(C(=O)C3CN(Cc4cc(C(F)(F)F)c(=O)[nH]n4)C3)CC2)ncc1C(F)(F)F [Embodiment 57, 6-((3-(4-(4-methoxy-5-(trifluoromethyl)pyridin-2-yl)piperazine-1-carbonyl)azetidin-1-yl)methyl)-4-(trifluoromethyl)pyridazin-3(2H)-one]	–
